Read-outs that look alike come from different tables or passages of the source.
Columns and labels:
[1] = system: PC9 cells; assay: MTT IC50 on parental PC9 cells; assay type: cell-based
[2] = system: PC9-OSIMR cells; assay: MTT IC50 on Osimertinib-resistant PC9 cells; assay type: cell-based
[3] = system: PC9luc cells; assay: MTT IC50 on PC9 cells expressing a luciferase gene; assay type: cell-based
[4] = system: PC9luc-OSIMR cells; assay: MTT IC50 on PC9-Osimertinib resistant cells expressing a luciferase gene; assay type: cell-based
[5] = molecular target: Yap1:Oct4 interaction (Homo sapiens, UniProt P46937); assay: Yap1:Oct4 interaction (in vitro binding assay); details: FIG. 1
Sequence of Yap1:Oct4 interaction (P46937 whole entry): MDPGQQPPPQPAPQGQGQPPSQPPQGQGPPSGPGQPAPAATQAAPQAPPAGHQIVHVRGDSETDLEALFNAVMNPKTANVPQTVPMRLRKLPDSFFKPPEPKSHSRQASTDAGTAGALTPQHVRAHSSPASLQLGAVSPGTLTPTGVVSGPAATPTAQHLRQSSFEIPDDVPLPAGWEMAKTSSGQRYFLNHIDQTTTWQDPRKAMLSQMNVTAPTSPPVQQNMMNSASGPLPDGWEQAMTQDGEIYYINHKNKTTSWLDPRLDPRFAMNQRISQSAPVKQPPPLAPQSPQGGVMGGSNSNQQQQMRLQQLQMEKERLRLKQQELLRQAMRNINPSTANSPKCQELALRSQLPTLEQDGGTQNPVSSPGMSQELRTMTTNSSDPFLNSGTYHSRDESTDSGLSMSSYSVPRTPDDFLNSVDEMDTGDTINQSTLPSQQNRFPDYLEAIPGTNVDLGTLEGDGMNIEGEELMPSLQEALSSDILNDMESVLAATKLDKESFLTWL

C=CC(=O)Nc1cc(Nc2nccc(-c3cn(C)c4ccccc34)n2)c(OC)cc1N(C)CCN(C)C [Osimertinib, reference compound]
IC50 ([1]; Homo sapiens, PC-9, EGFR-mutant PC9 cells, read-out: IC50 for Osimertinib): 0.016 µM
IC50 ([1]; Homo sapiens, PC-9, PC9, read-out: IC50 MTT): 0.0162 µM
IC50 ([2]; Homo sapiens, PC-9, Osimertinib-resistant PC9 cells, read-out: IC50): 5.2 µM
IC50 ([2]; Homo sapiens, PC-9, PC9-OSIMR, read-out: IC50 MTT): 5.25 µM
fold reduction in sensitivity ([2]; Osimertinib-resistant vs parental PC9 cells): 325 fold
IC50 ([3]; Homo sapiens, PC-9): 0.0161 µM
IC50 [4]: 4.93 µM

COC(=O)[C@H](Cc1ccc(OCc2ccccc2)cc1)NC(=O)CC1CCN(CCCc2cccc(F)c2)CC1 [SR6-085]
IC50 [5]: 0.75 ± 0.15 µM

COC(=O)[C@H](Cc1ccc(OCc2ccccc2)cc1)NC(=O)CC1CCN(CCCc2ccc(Cl)c(Cl)c2)CC1 [SR6-086]
IC50 [5]: 1.85 ± 0.89 µM

CCOc1ccc(CCCN2CCC(CC(=O)N[C@@H](Cc3ccc(OCc4ccccc4)cc3)C(=O)OC)CC2)cc1 [SR6-087]
IC50 [5]: 0.51 ± 0.08 µM

COC(=O)[C@H](Cc1ccc(OCc2ccccc2)cn1)NC(=O)CC1CCN(C(=O)CCc2ccc(Cl)c(Cl)c2)CC1 [SR6-095]
IC50 [5]: 1.01 ± 0.26 µM

COC(=O)[C@H](Cn1cc(-c2ccccc2)cn1)NC(=O)CC1CCN(C(=O)CCc2cccc(F)c2)CC1 [SR6-096]
IC50 [5]: 0.87 ± 0.32 µM

COC(=O)[C@H](Cc1ccc(OCc2ccccc2)cc1)NC(=O)CC1CCN(CCCc2ccc(F)c(C#N)c2)CC1 [SR6-170]
IC50 [5]: 0.78 ± 0.15 µM

CCOc1ccc(CCCN2CCC(CC(=O)N[C@@H](Cc3cccc(OC)c3)C(=O)OC)CC2)cc1 [SR7-042]
IC50 [5]: 1.4 µM

COC(=O)[C@H](Cc1cccc(OC)c1)NC(=O)CC1CCN(CCCc2ccc(Cl)c(Cl)c2)CC1 [SR7-045]
IC50 [5]: 1.45 µM

CCOc1ccc(CCCN2CCC(CC(=O)Nc3ccc(OCc4ccccc4)cc3)CC2)cc1 [SR7-052]
IC50 ([1]; PC9, read-out: IC50 MTT): 1.23 µM
IC50 ([2]; PC9-OSIMR, read-out: IC50 MTT): 5.47 µM
IC50 [3]: 1.27 µM
IC50 [4]: 4.03 µM
IC50 [5]: 0.445 µM

O=C(CC1CCN(CCCc2ccc(Cl)c(Cl)c2)CC1)Nc1ccc(OCc2ccccc2)cc1 [SR7-053]
IC50 ([1]; PC9, read-out: IC50 MTT): 1.16 µM
IC50 ([2]; PC9-OSIMR, read-out: IC50 MTT): 3.9 µM
IC50 [3]: 0.865 µM
IC50 [4]: 3.35 µM
IC50 [5]: 0.564 µM

COC(=O)[C@H](Cc1cccc(OC)c1)NC(=O)CC1CCN(CCC(C)(C)C)CC1 [SR7-055]
IC50 [5]: > 40 µM

O=C(CC1CCN(CCCc2cccc(F)c2)CC1)Nc1ccc(OCc2ccccc2)cc1 [SR7-057]
IC50 [5]: 0.707 µM

N#Cc1ccc(CCCN2CCC(CC(=O)Nc3ccc(OCc4ccccc4)cc3)CC2)cc1 [SR7-061]
IC50 [5]: 1.3 µM

COC(=O)[C@H](Cc1ccc(OC)cc1)NC(=O)CC1CCN(CCCc2cccc(F)c2)CC1 [SR7-067]
IC50 ([1]; PC9, read-out: IC50 MTT): > 40 µM
IC50 ([2]; PC9-OSIMR, read-out: IC50 MTT): > 40 µM
IC50 [3]: > 40 µM
IC50 [4]: > 40 µM
IC50 [5]: 2.56 µM

— patent publication US20260034115A1, “YAP1 INHIBITORS” (H. LEE MOFFITT CANCER CENTER AND RESEARCH INSTITUTE, INC., priority 2021, published 2026)
